Literature values, collected in patent US20220160668A1, “FORMULATIONS AND METHODS FOR TREATING CONDITIONS OF THE EYE” (Sight Sciences, Inc., priority 2020, published 2022).

Conditions: antibiotic level of azithromycin (1%)

## CC[C@H]1OC(=O)[C@H](C)[C@@H](O[C@H]2C[C@@](C)(OC)[C@@H](O)[C@H](C)O2)[C@H](C)[C@@H](O[C@@H]2O[C@H](C)C[C@H](N(C)C)[C@H]2O)[C@](C)(O)C[C@@H](C)CN(C)[C@H](C)[C@@H](O)[C@]1(C)O [azithromycin]
  effect on phase transition temperature of meibum lipids and lipid ordering: can improve the phase transition temperature of meibum lipids and lipid ordering
